Experimental data: patent US20230357253A1, “AGONISTS OF STIMULATOR OF INTERFERON GENES STING” (THE SCRIPPS RESEARCH INSTITUTE, priority 2020, published 2023)

Assays:
THP-1 Lucia ISG cells = experiment: ISRE-luciferase assay (ISG-LUC activation); type: cell-based; conditions: Homo sapiens, THP1-Lucia ISG, 24 hours, luciferase reporter
In short: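 THP-1 Lucia ISG cells at 5×10^5 cells/ml in 2% FBS medium were treated with test article or DMSO vehicle for 24 h. Secreted luciferase was read by luminescence and normalized to vehicle, reported as RLU.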

human STING protein = human STING protein (Homo sapiens (Human), UniProt Q86WV6); experiment: WT STING binding assay (HTRF, competition with labeled 2′3′cGAMP); conditions: recombinant 6×His-tagged human STING, three hours at room temperature
Chain of human STING protein (Q86WV6 whole entry): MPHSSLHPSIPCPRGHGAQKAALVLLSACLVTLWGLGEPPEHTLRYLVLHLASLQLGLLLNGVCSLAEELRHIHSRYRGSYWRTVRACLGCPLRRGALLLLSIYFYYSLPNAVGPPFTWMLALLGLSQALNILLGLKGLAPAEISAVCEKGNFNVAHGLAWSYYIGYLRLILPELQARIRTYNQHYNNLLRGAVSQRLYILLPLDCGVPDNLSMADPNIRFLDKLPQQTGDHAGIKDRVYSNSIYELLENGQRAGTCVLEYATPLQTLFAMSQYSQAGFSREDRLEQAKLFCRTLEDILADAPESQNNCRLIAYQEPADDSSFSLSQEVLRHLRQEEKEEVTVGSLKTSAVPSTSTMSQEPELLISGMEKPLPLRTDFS
Method: WT STING binding assay (Cisbio, Catalog #64BDSTGPEH). […] Upon proximity of the two dyes, the excitation of the donor by the flash lamp on the PHERAstar FSX plate reader triggers a Fluorescence Resonance Energy Transfer (FRET) towards the acceptor, which in turn fluoresces at 665 nm. To assess the ability of the synthetic small molecule STING ligands to bind to human STING, a competitive assay format was applied. A 10-point titration of each of the synthetic ligands in 5 uL were transferred into a 384 well plate, followed by 20 uL of assay buffer containing the 6×His-tagged human STING protein and labeled 2′3′cGAMP ligand and incubated for three hours at room temperature. The raw values obtained from the PHERAstar were used to calculate the reported IC50 values (the signal is inversely proportional to the binding of the synthetic ligand) through curve fitting in Genedata. The percent inhibition was calculated based upon the maximal amount of binding by synthetic compound versus the maximum binding of unlabeled 2′3′ cGAMP which was used as a control in each assay.

| SMILES | EC50 (THP-1 Lucia ISG cells) | IC50 (human STING protein) |
| --- | --- | --- |
| COc1cc(C(=O)O)c(NC(=O)c2ccc(-n3ccnc3)nn2)cc1OCCc1cc(NC(=O)c2ccc3nnnn3n2)c(C(=O)O)cc1F [Compound 110] | > 5000 nM | 100 to 1000 nM |
| O=C(Nc1cc(CCCc2cc(NC(=O)c3ccc(-n4ccnc4)nn3)c(C(=O)O)cc2F)c(F)cc1C(=O)O)c1cccnn1 [Compound 111] | 50 to 500 nM | 10 to 100 nM |
| O=C(Nc1cc(CCCc2cnc(C(=O)O)c(NC(=O)c3ccc4nnnn4n3)c2)c(F)cc1C(=O)O)c1ccc(-n2ccnc2)nn1 [Compound 112] | 500 to 5000 nM | 10 to 100 nM |
| O=C(Nc1cc(OCCc2cc(NC(=O)c3ccc4nnnn4n3)c(C(=O)O)cc2Cl)ccc1C(=O)O)c1ccc(-n2ccnc2)nn1 [Compound 114] | 50 to 500 nM | 100 to 1000 nM |
| COc1cc(C(=O)O)c(NC(=O)c2ccc3nnnn3n2)cc1CCCc1cc(NC(=O)c2ccc(-n3ccnc3)nn2)c(C(=O)O)cc1F [Compound 115] | 50 to 500 nM | 10 to 100 nM |
| O=C(Nc1cc(OCCc2cc(NC(=O)c3ccc4nnnn4n3)c(C(=O)O)cc2F)c(F)cc1C(=O)O)c1ccc(-n2ccnc2)nn1 [Compound 116] | 50 to 500 nM | 10 to 100 nM |
| O=C(Nc1cc(CCCc2cc(NC(=O)c3ccc4cnnn4n3)c(C(=O)O)cc2F)c(F)cc1C(=O)O)c1ccc(-n2ccnc2)nn1 [Compound 117] | 500 to 5000 nM | 10 to 100 nM |
| O=C(Nc1cc(CCOc2c(F)cc(C(=O)O)c(NC(=O)c3ccc4nnnn4n3)c2F)c(F)cc1C(=O)O)c1ccc(-n2ccnc2)nn1 [Compound 118] | 500 to 5000 nM | 100 to 1000 nM |
| O=C(Nc1cc(CCOc2cc(NC(=O)c3ccc(-n4ccnc4)nn3)c(C(=O)O)cc2F)c(F)cc1C(=O)O)c1ccc(-n2ccnc2)nn1 [Compound 119] | 50 to 500 nM | 10 to 100 nM |
| O=C(Nc1cc(CCOc2c(F)cc(C(=O)O)c(NC(=O)c3ccc(-n4ccnc4)nn3)c2F)c(F)cc1C(=O)O)c1ccc(-n2ccnc2)nn1 [Compound 123] | 50 to 500 nM | 100 to 1000 nM |
| COc1cc(C(=O)O)c(NC(=O)c2ccc(-n3ccnc3)nn2)cc1CSCc1cc(NC(=O)c2ccc(-n3ccnc3)nn2)c(C(=O)O)cc1F [Compound 124] | 50 to 500 nM | 10 to 100 nM |
| COc1cc(C(=O)O)c(NC(=O)c2ccc(-n3ccnc3)nn2)cc1OCCc1cc(C(=O)O)c(NC(=O)c2ccc3nnnn3n2)cc1C#N [Compound 128] | 50 to 500 nM | 10 to 100 nM |
| O=C(Nc1cc(OCCc2cc(NC(=O)c3ccc(-n4ccnc4)nn3)c(C(=O)O)cc2Cl)c(F)cc1C(=O)O)c1ccc(-n2ccnc2)nn1 [Compound 129] | 50 to 500 nM | 10 to 100 nM |
| NC(=O)c1nnn2nc(C(=O)Nc3cc(CCOc4cc(NC(=O)c5ccc(-n6ccnc6)nn5)c(C(=O)O)cc4F)c(F)cc3C(=O)O)ccc12 [Compound 135] | 50 to 500 nM | 10 to 100 nM |
| N#Cc1nnn2nc(C(=O)Nc3cc(CCOc4cc(NC(=O)c5ccc(-n6ccnc6)nn5)c(C(=O)O)cc4F)c(F)cc3C(=O)O)ccc12 [Compound 136] | > 5000 nM | 100 to 1000 nM |

Next, values leading:

| EC50 (THP-1 Lucia ISG cells) | IC50 (human STING protein) | SMILES |
| --- | --- | --- |
| 50 to 500 nM | 10 to 100 nM | Nc1cc(C(=O)Nc2cc(OCCc3cc(NC(=O)c4ccc(-n5ccnc5)nn4)c(C(=O)O)cc3F)c(F)cc2C(=O)O)nn2nnnc12 [Compound 137] |
| < 50 nM | 100 to 1000 nM | COC(=O)c1cc(F)c(CCOc2cc(NC(=O)c3ccc(-n4ccnc4)nn3)c(C(=O)O)cc2F)cc1NC(=O)c1ccc(-n2ccnc2)nn1 [Compound 140] |
| 50 to 500 nM | 10 to 100 nM | COc1cc(NC(=O)c2ccc(-n3ccnc3)nn2)c(C(=O)O)cc1OCCc1cc(NC(=O)c2ccc(-n3ccnc3)nn2)c(C(=O)O)cc1F [Compound 142] |
| > 5000 nM | 10 to 100 nM | O=C(Nc1cc(CS(=O)(=O)Cc2cc(NC(=O)c3ccc(-n4ccnc4)nn3)c(C(=O)O)cc2F)c(F)cc1C(=O)O)c1ccc(-n2ccnc2)nn1 [Compound 143] |
| > 5000 nM | 100 to 1000 nM | COc1cc(NC(=O)c2ccc3nnnn3n2)c(C(=O)O)cc1OCCc1cc(NC(=O)c2ccc(-n3ccnc3)nn2)c(C(=O)O)cc1F [Compound 147] |
| 500 to 5000 nM | 10 to 100 nM | O=C(Nc1cc(CCOCc2cc(NC(=O)c3ccc(-n4ccnc4)nn3)c(C(=O)O)cc2F)c(F)cc1C(=O)O)c1ccc(-n2ccnc2)nn1 [Compound 149] |
| 50 to 500 nM | 10 to 100 nM | O=C(Nc1cc(COCc2cc(NC(=O)c3ccc(-n4ccnc4)nn3)c(C(=O)O)cc2F)c(F)cc1C(=O)O)c1ccc(-n2ccnc2)nn1 [Compound 151] |
| 500 to 5000 nM | 100 to 1000 nM | O=C(Nc1cc(OCCc2cc(NC(=O)c3ccc(-n4ccnc4)nn3)c(C(O)C(=O)O)cc2F)c(F)cc1C(=O)O)c1ccc(-n2ccnc2)nn1 (stereo not shown) [Compound 154] |
| > 5000 nM | 100 to 1000 nM | O=C(Nc1cc(CCOc2cc(NC(=O)c3ccc4nnnn4n3)c(C(=O)O)cc2F)c(F)cc1C(=O)O)c1ccc2nnnn2n1 [Compound 160] |
| > 5000 nM | 100 to 1000 nM | O=C(Nc1cc(CCCc2cc(NC(=O)c3ccc4nnnn4n3)c(C(=O)O)cc2F)c(F)cc1C(=O)O)c1ccc2nnnn2n1 [Compound 161] |
| 50 to 500 nM | 10 to 100 nM | N#Cc1cc(C(=O)O)c(NC(=O)c2ccc(-n3ccnc3)nn2)cc1OCCc1cc(NC(=O)c2ccc(-n3ccnc3)nn2)c(C(=O)O)cc1F [Compound 167] |
| 50 to 500 nM | 10 to 100 nM | COc1cc(NC(=O)c2ccc(-n3ccnc3)nn2)c(C(=O)O)c(F)c1CCCc1cc(NC(=O)c2ccc(-n3ccnc3)nn2)c(C(=O)O)cc1F [Compound 170] |
| 50 to 500 nM | 10 to 100 nM | O=C(Nc1cc(OCCOc2cc(NC(=O)c3ccc(-n4ccnc4)nn3)c(C(=O)O)cc2F)c(F)cc1C(=O)O)c1ccc(-n2ccnc2)nn1 [Compound 171] |
| > 5000 nM | 100 to 1000 nM | O=C(Nc1cc(F)c(CCCc2cc(C(=O)O)c(NC(=O)c3ccc(-n4ccnc4)nn3)cc2F)cc1C(=O)O)c1ccc(-n2ccnc2)nn1 [Compound 172] |
| < 50 nM | 10 to 100 nM | CCOC(=O)c1cc(F)c(CCCc2cc(NC(=O)c3ccc(-n4ccnc4)nn3)c(C(=O)O)cc2F)cc1NC(=O)c1ccc(-n2ccnc2)nn1 [Compound 173, 2-(6-(1H-imidazol-1-yl)pyridazine-3-carboxamido)-4-(3-(5-(6-(1H-imidazol-1-yl)pyridazine-3-carboxamido)-4-(ethoxycarbonyl)-2-fluorophenyl)propyl)-5-fluorobenzoic acid] |
| > 5000 nM | 100 to 1000 nM | O=C(Nc1cc(OCCc2cc(C(=O)O)c(NC(=O)c3ccc4nnnn4n3)cc2F)c(F)cc1C(=O)O)c1ccc2nnnn2n1 [Compound 176] |
| 50 to 500 nM | 10 to 100 nM | O=C(Nc1cc(OCCc2cc(NC(=O)c3ccc(-n4ccnc4)nn3)c(C(=O)O)nc2Cl)c(F)cc1C(=O)O)c1ccc(-n2ccnc2)nn1 [Compound 181] |
| 500 to 5000 nM | 100 to 1000 nM | C#Cc1cc(C(=O)O)c(NC(=O)c2ccc(-n3ccnc3)nn2)cc1CCOc1cc(NC(=O)c2ccc(-n3ccnc3)nn2)c(C(=O)O)cc1F [Compound 183] |
| 500 to 5000 nM | 10 to 100 nM | O=C(Nc1cc(CSCc2cc(NC(=O)c3ccc4nnnn4n3)c(C(=O)O)cc2F)c(F)cc1C(=O)O)c1ccc(-n2ccnc2)nn1 [Compound 184] |
| 500 to 5000 nM | 10 to 100 nM | CC(COc1cc(NC(=O)c2ccc(-n3ccnc3)nn2)c(C(=O)O)cc1F)COc1cc(NC(=O)c2ccc(-n3ccnc3)nn2)c(C(=O)O)cc1F [Compound 185] |
